Reference: patent US4354039A, “Chlorocitric acids” (Hoffmann-La Roche Inc., priority 1981, dated 1982)
Counter-ions that a name gives are not always drawn. Like-named read-outs stand apart in the source and are kept apart here.

Key:
[1] = Comparative anorectic activity, food consumption of meal-fed rats (Example 13); type: in vivo, Charles River female rats; settings: 3 hr meal
Procedure: Charles River female rats (Charles River Breeding Laboratories, Wilmington, Mass.), weighing 150 to 175 g, were individually housed in wire-bottomed cages in a temperature-regulated (22° C.) light-controlled room (12 hr light, 6 a.m. to 6 p.m. and 12 hr dark, 6 p.m. to 6 a.m.). Animals were fasted 48 hr, then meal-fed the 70% glucose diet described by A. C. Sullivan, et al., J. Nutrition, 101, 265 (1971) from 8 to 11 a.m. Following 5 to 13 days alimentation on the meal-feeding regimen, rats were dosed with the appropriate compounds orally by intubation 1/2 hr before the 3 hr meal. Food cups were weighed immediately after the meal. The control group consists of 31 rats while each drug treated group consists of 5 to 12 rats.
The G-70 diet consisted of 70% glucose, 23% vitamin-free casein, 5% Phillips and Hart salt mixture IV, 1% corn oil, 1% complete vitamin mixture, and 40 g/kg cellulose. To ensure complete uniformity, all diets were mixed with a twen-shell dry blender equipped with an itensifier bar (Patterson-Kelley Co., East Stroudsburg, Pa.).

[2] = Food intake in dogs, pyramiding oral doses (Examples 26 and 27); type: in vivo, beagle dogs
Procedure: Twelve beagle dogs of both sexes weighing 7.6-12.2 kg were used for this test. The test compounds were contained in gelatin capsules for oral administration to two dogs of each sex. The animals were weighed and food consumption calculated daily excluding weekends throughout the test period. Each animal received 800 grams of diet daily consisting of 400 grams of Wayne pellet dog food mixed with 400 ml distilled water. The animals received pyramiding oral doses of the test compound over the three week period. On Monday and Tuesday of the first week the animals were weighed and food consumption was recorded (control). […] Doses of 30, 100 and 300 mg/kg were administered on Monday, Wednesday and Friday respectively during the second week. A final dose of 1000 mg/kg was administered on Monday of the third week.
Food intake was determined by the procedure at pyramiding doses described in EXAMPLE 26.

[3] = Effect on stomach emptying, [14C] glucose load (Example 25); type: in vivo, Rats; settings: for Serum, % of control / Stomach Contents, % of control: 0.33 mmoles/kg oral, 60 min after [14C] glucose load
Procedure: Rats were trained to consume a 3 hr 70% glucose meal from 8 a.m. to 11 a.m. daily. On the experimental day, compounds were administered orally by intubation 30 min before a [^14 C] glucose load was given also by intubation. […] Sixty minutes later the rats were killed by decapitation; blood and stomachs were collected on ice.
Data are expressed as follows: dpm×10^3 per ml of serum and dpm×10^3 per stomach.

isolated rat hepatocytes = experiment: Fatty acid and cholesterol synthesis and CO2 production in isolated hepatocytes (Example 23); type: cell-based, Female Charles River rats; settings: for activity at 2000 µM: Rattus norvegicus, Hepatocyte, 1 h, 2 mM, 60 min, 37° C.
Procedure: Female Charles River rats were fasted 48 hr, then meal-fed a 1% corn oil, 70% glucose diet for 7 to 14 days from 8 to 11 a.m. The isolated rat hepatocytes were prepared by perfusing the liver in situ. The hepatocytes were incubated in an oscillating water bath at 37° C. for 60 min. […] All incubations were done in triplicate and all experiments were repeated at least twice. […] The contents of the center well were transferred to scintillation counting fluid and ^14 CO2 content was determined. […] The media was then acidified, extracted with hexane, and the extract counted (to determine the rate of lipogenesis). The conversion of ^3 H2 O and [^14 C]alanine into fatty acids or sterols was determined in a PDS/3, Mark II liquid scintillation counting system.

[4] = Effect of stereoisomers on food consumption of meal-fed rats (Example 14); type: in vivo, Charles River female rats
Procedure: Animals were fasted 48 hr, then meal-fed the 70% glucose diet described by A. C. […] Following 5 to 12 days alimentation on the meal-feeding regimen, rats were dosed with the appropriate compounds orally by intubation 1/2 hr before the 3 hr meal. Food cups were weighed immediately after the meal. The control group consisted of 5 to 10 rats, while the experimental group consisted of 4 to 6 rats.

[5] = Anorectic activities of stereoisomers, 3-day food consumption and body weight gain (Example 16); type: in vivo, Charles River female rats; settings: 1.32 mmoles/kg oral, 3 days
Procedure: Charles River female rats (Charles River Breeding Laboratories, Wilmington, Mass.), weighing 196 to 210 g, were individually housed in wire-bottomed cages in a temperature-regulated (22° C.) light-controlled room (12 hr light, 6 a.m. to 6 p.m. and 12 hr dark, 6 p.m. to 6 a.m.). Animals were fasted 48 hr, then meal-fed a 70% glucose diet from 8 to 11 a.m. Following 5 to 12 days alimentation on the meal-feeding regimen, rats were dosed with the appropriate compounds orally by intubation 1/2 hr before the 3 hr meal for 3 days. The total food consumption and body weight gained during the 3 day period were determined. The control group consisted of 16 rats, while the experimental group consists of 8 rats.

[6] = Anorectic effect in 8 hour meal-fed Zucker rats (Example 17); type: in vivo, lean (Fa/-) and obese (fa/fa)
Procedure: Lean (Fa/-) Zucker rats and obese (fa/fa) Zucker rats of both sexes were individually housed in wire-bottomed cages in a temperature-regulated (22° C.) light-controlled room (12 hr light, 6 a.m. to 6 p.m. and 12 hr dark, 6 p.m. to 6 a.m.). The animals were fed a high carbohydrate (70% glucose) diet ad libitum for 13 days, dosed with the indicated compounds by oral intubation for 9 days and allowed to recover for 3 days. The animals were then meal fed from 8 a.m. to 4 p.m. for a period of 5 days, following which they were continued on the same meal schedule for an additional 6 days. During the 6-day period, the animals were administered the indicated compounds by oral intubation at 8 a.m. and 12 p.m. Food cups were weighed immediately after the meal.

[7] = test day 8, dose 100 mg/kg oral
[8] = test day 10, dose 300 mg/kg oral
[9] = test day 13, dose 1000 mg/kg oral

SMILES: O=C(O)C[C@@](O)(C(=O)O)[C@@H](Cl)C(=O)O (relative stereo) [(±)-threo-Chlorocitric acid]
- Food Consumption, % of control ([1]; 0.08 mmoles/kg oral): 57 % of control
- Food Consumption, % of control ([1]; 0.17 mmoles/kg oral): 61 % of control
- Food Consumption, % of control ([1]; 0.33 mmoles/kg oral): 51 % of control
- Food Consumption, % of control ([1]; 0.66 mmoles/kg oral): 35 % of control
- Food Consumption, % of control ([1]; 1.32 mmoles/kg oral): 28 % of control
- Food Consumption, % of control ([1]; 2.63 mmoles/kg oral): 34 % of control
- Food Consumption ([2]; test day 1, dose 3 mg/kg oral): 616 ± 79 g
- Food Consumption, % of control ([2]; test day 1, dose 3 mg/kg oral): 129 % of control
- Food Consumption ([2]; test day 2, no dose): 392 ± 140 g
- Food Consumption, % of control ([2]; test day 2, no dose): 82 % of control
- Food Consumption ([2]; test day 3, dose 10 mg/kg oral): 460 ± 136 g
- Food Consumption, % of control ([2]; test day 3, dose 10 mg/kg oral): 96 % of control
- Food Consumption ([2]; test day 6, dose 30 mg/kg oral): 511 ± 104 g
- Food Consumption, % of control ([2]; test day 6, dose 30 mg/kg oral): 107 % of control
- Food Consumption, % of control ([2]; test day 7, no dose): 100 % of control
- Food Consumption [2, 7]: 299 ± 176 g
- Food Consumption, % of control [2, 7]: 62 % of control
- Food Consumption ([2]; test day 9, no dose): 492 ± 110 g
- Food Consumption, % of control ([2]; test day 9, no dose): 103 % of control
- Food Consumption [2, 8]: 316 ± 109 g
- Food Consumption, % of control [2, 8]: 66 % of control
- Food Consumption [2, 9]: 164 ± 61 g
- Food Consumption, % of control [2, 9]: 34 % of control
- Food Consumption ([2]; test day 14, no dose): 560 ± 136 g
- Food Consumption, % of control ([2]; test day 14, no dose): 117 % of control
- Food Consumption ([2]; test day 15, no dose): 543 ± 92 g
- Food Consumption, % of control ([2]; test day 15, no dose): 113 % of control
- Food Consumption ([2]; test day 16, no dose): 624 ± 88 g
- Food Consumption, % of control ([2]; test day 16, no dose): 130 % of control
- Food Consumption ([2]; test day 17, no dose): 645 ± 93 g
- Food Consumption, % of control ([2]; test day 17, no dose): 135 % of control
- Food Consumption ([2]; test day 21, no dose): 561 ± 83 g
- Food Consumption, % of control ([2]; test day 21, no dose): 117 % of control
- Food Consumption ([2]; test day 22, no dose): 649 ± 91 g
- Food Consumption, % of control ([2]; test day 22, no dose): 135 % of control
- Food Consumption ([2]; test day 23, no dose): 533 ± 118 g
- Food Consumption, % of control ([2]; test day 23, no dose): 111 % of control
- Food Consumption ([2]; test day 24, no dose): 477 ± 114 g
- Food Consumption, % of control ([2]; test day 24, no dose): 100 % of control
- Food Consumption ([2]; test day 27, no dose): 518 ± 139 g
- Food Consumption, % of control ([2]; test day 27, no dose): 108 % of control
- Food Consumption ([2]; test day 28, no dose): 663 ± 137 g
- Food Consumption, % of control ([2]; test day 28, no dose): 138 % of control

SMILES: O=C(O)CC(O)(C(=O)O)C(O)C(=O)O (single isomer, unassigned) [hydroxycitric acid, reference compound]
- gastric emptying ([3]; in words, comparable doses): delayed gastric emptying
- inhibition of lipid (fatty acid) and cholesterol syntheses (isolated rat hepatocytes; in words): inhibition of fatty acid and cholesterol syntheses

SMILES: O=C(O)C[C@@](O)(C(=O)O)[C@H](Cl)C(=O)O [(+)-erythro-Chlorocitric acid]
- Serum, % of control [3]: 88 % of control
- Stomach Contents, % of control [3]: 207 % of control
- Food Consumption, % of control ([4]; 0.66 mmoles/kg oral): 99 % of control
- Food Consumption, % of control ([4]; 2.63 mmoles/kg oral): 78 % of control
- 3-Day Body Weight Gain, % of initial body weight [5]: -0.7 % of initial body weight
- 3-Day Food Consumption, % of control [5]: 111 % of control

SMILES: O=C(O)C[C@](O)(C(=O)O)[C@@H](Cl)C(=O)O [(-)-erythro-Chlorocitric acid]
- Serum, % of control [3]: 90 % of control
- Stomach Contents, % of control [3]: 169 % of control
- Food Consumption, % of control ([4]; 0.66 mmoles/kg oral): 85 % of control
- Food Consumption, % of control ([4]; 2.63 mmoles/kg oral): 53 % of control
- 3-Day Body Weight Gain, % of initial body weight [5]: -2.4 % of initial body weight
- 3-Day Food Consumption, % of control [5]: 86 % of control

SMILES: O=C(O)CC(O)(CC(=O)O)C(=O)O [Citric Acid]
- Daily Food Consumption ([6]; Fa/-- lean, 1.32 mmoles/kg group, pretreatment day 0): 11.0 ± 0.8 g
- Daily Food Consumption ([6]; Fa/-- lean, 1.32 mmoles/kg oral, day 1): 10.6 ± 1.2 g
- Daily Food Consumption ([6]; Fa/-- lean, 1.32 mmoles/kg oral, day 2): 10.0 ± 1.2 g
- Daily Food Consumption ([6]; Fa/-- lean, 1.32 mmoles/kg oral, day 3): 12.7 ± 1.0 g
- Daily Food Consumption ([6]; Fa/-- lean, 1.32 mmoles/kg oral, day 4): 11.9 ± 0.7 g
- Daily Food Consumption ([6]; Fa/-- lean, 1.32 mmoles/kg oral, day 5): 12.6 g
- Daily Food Consumption ([6]; Fa/-- lean, 1.32 mmoles/kg oral, day 6): 13.1 ± 0.9 g
- Daily Food Consumption ([6]; fa/fa obese, 1.32 mmoles/kg group, pretreatment day 0): 13.4 ± 0.8 g
- Daily Food Consumption ([6]; fa/fa obese, 1.32 mmoles/kg oral, day 1): 11.4 ± 0.8 g
- Daily Food Consumption ([6]; fa/fa obese, 1.32 mmoles/kg oral, day 2): 13.8 ± 1.2 g
- Daily Food Consumption ([6]; fa/fa obese, 1.32 mmoles/kg oral, day 3): 16.5 ± 1.0 g
- Daily Food Consumption ([6]; fa/fa obese, 1.32 mmoles/kg oral, day 4): 14.8 ± 0.9 g
- Daily Food Consumption ([6]; fa/fa obese, 1.32 mmoles/kg oral, day 6): 16.0 ± 1.0 g
- Food Consumption, % of control ([4]; 2.63 mmoles/kg oral): 94 % of control

SMILES: O=C(O)C[C@@](O)(C(=O)O)[C@H](O)C(=O)O [Trisodium (-)-threo-hydroxycitrate, reference compound]
- Food Consumption, % of control ([1]; 0.33 mmoles/kg oral): 103 % of control
- Food Consumption, % of control ([1]; 0.66 mmoles/kg oral): 80 % of control
- Food Consumption, % of control ([1]; 1.32 mmoles/kg oral): 88 % of control
- Food Consumption, % of control ([1]; 2.63 mmoles/kg oral): 79 % of control
- Serum, % of control [3]: 79 % of control
- Stomach Contents, % of control [3]: 223 % of control
- activity at 2000 µM (isolated rat hepatocytes; read-out: CO2 Production, [14C]alanine converted): 103%
- activity at 2000 µM (isolated rat hepatocytes; read-out: Cholesterol Synthesis, 3H2O converted): 60%
- activity at 2000 µM (isolated rat hepatocytes; read-out: Cholesterol Synthesis, [14C]alanine converted): 18%
- activity at 2000 µM (isolated rat hepatocytes; read-out: Fatty Acid Synthesis, 3H2O converted): 54%
- activity at 2000 µM (isolated rat hepatocytes; read-out: Fatty Acid Synthesis, [14C]alanine converted): 30%

SMILES: O=C(O)CC(O)(CC(=O)O)C(=O)O [Trisodium Citrate, reference compound]
- Serum, % of control [3]: 112 % of control
- Stomach Contents, % of control [3]: 133 % of control
